Read-outs that look alike come from different tables or passages of the source. Where no end group is shown, it is not given here.
Legend:
[1] = tested on: Aeromonas salmonicida ATCC33658; assay: microbe, parasite or virus in culture; format: cell-based; settings: ATCC33658
Protocol: (§1) All strains were grown in Mueller-Hinton-II medium, except L. monocytogenes which was grown in BHI medium and L. lactis which was grown in MRS medium. Incubation took place aerobically at 37°C, except for Y. ruckeri and A. salmonicida, which were grown aerobically at RT (20 °C), and L. lactis grown aerobically at 30°C. All plates were incubated for 16–21 hours.
(§2) The minimum inhibitory concentrations (MICs) of the AMPs were measured in 96-well microtiter plates according the Clinical and Laboratory Standards Institute (CLSI, formerly National Committee for Clinical Laboratory Standards [NCCLS]). Briefly, liquid Mueller-Hinton-II medium containing increasing concentrations of AMPs is inoculated with a defined number of cells (approx. 10^5 CFUs/ml) in 96-well microtiter plates (polypropylene), whereas each plate also includes a positive growth control and a negative control (sterile control). The range of peptide concentrations analyzed was 0.125–64 μg/ml for the high purity peptides and 0.06–32 μg/ml for peptides of the variant library. After incubation, the MIC is determined by the lowest concentration showing no visible growth. All plates were incubated for 16–20 hours. The MIC of the reference antibiotics was determined by the use of Sensititre panels (Trek Diagnostic Systems Ltd, East Grinstead, UK).

[2] = tested on: Yersinia ruckeri 392/2003; assay: microbe, parasite or virus in culture; format: cell-based
Protocol: as §1, §2

[3] = tested on: Salmonella enterica serovar Typhimurium LT2; assay: microbe, parasite or virus in culture; format: cell-based; settings: LT2
Protocol: as §1, §2

[4] = tested on: all the tested bacterial species including Gram-positive and Gram-negative bacteria
Protocol: as §2, with “The range of peptide concentrations analyzed was 0.125–64 μg/ml for the high purity peptides and 0.06–32 μg/ml for peptides of the variant library.” left out
To identify Cap18 variant peptides with changed species specificity, the antimicrobial screening data of Y. ruckeri, A. salmonicida, S. Typhimurium and L. lactis was compared.
In addition, three Cap18 derivatives harboring either a I13F, I13M or G26T substitution were ordered as positive controls. […] The antimicrobial activity of the highly pure peptides was determined by measuring the MIC value of each derivative against the four test strains Y. ruckeri, A. salmonicida, S.Typhimurium and L. lactis (Table 6). […] In addition to the additional screening strains, a wider range of relevant pathogens including Gram-positive and Gram-negative bacteria was analyzed for targeted antimicrobial activity.

[5] = tested on: Listeria monocytogenes N22-2; format: cell-based
Protocol: as §1, §2

[6] = tested on: Pseudomonas aeruginosa ATCC27853; format: cell-based
Protocol: as §1, §2

[7] = tested on: Lactococcus lactis IL1403; format: cell-based
Protocol: as §1, §2

[8] = tested on: Escherichia coli ATCC25922; format: cell-based
Protocol: as §1, §2

[9] = tested on: Enterococcus faecalis ATCC29212; format: cell-based
Protocol: as §1, §2

[10] = previous study; cited from earlier work
Source text: It must be expected that AMPs during evolution have evolved towards a high general activity against multiple microorganisms. In this study, we address the issues of species specificity, hemolytic activity and antimicrobial activity of Cap18, a α-helical peptide of the cathelicidin family.

horse erythrocytes = tested on: horse erythrocytes; set-up: method as in PMID 26656394; settings: cited from earlier work

Sequence | MIC A. salmonicida ATCC33658 [1] [µg/mL] | MIC Y. ruckeri 392/2003 [2] [µg/mL] | MIC S. Typhimurium LT2 [3] [µg/mL] | MIC against all the tested bacterial species [4] [µg/mL] | MIC L. monocytogenes N22-2 [5] [µg/mL] | MIC P. aeruginosa ATCC27853 [6] [µg/mL] | MIC L. lactis IL1403 [7] [µg/mL] | MIC E. coli ATCC25922 [8] [µg/mL] | MIC E. faecalis ATCC29212 [9] [µg/mL] | MIC A. salmonicida [1] [µg/mL] | MIC Y. ruckeri [2] [µg/mL] | MIC Y. ruckeri 392/2003 ([2]; high purity peptides, Mueller-Hinton-II, RT (20 °C), 0.125–64 μg/ml, triplicates) [µg/mL] | MIC S. Typhimurium [3] [µg/mL] | Thermostability [10] | Hemolytic activity in vitro (horse erythrocytes) | MIC L. lactis [7] [µg/mL]
GLRKRLRKFRNKDKEKLKKIGQKIQGLLPKLAPRTDY [Peptide 3] | ≥64 | ≥64 | ≥64 | ≥ 32 | 32 to 64 | ≥64 | ≥64 | ≥64 | ≥64 |  |  |  |  |  |  | 
GLRKRLRKFRNKIKEKLKKIGQKIQGLLPKLAPRTDY [Cap18] | 4 |  | 4 to 8 |  | 4 | 4 to 8 | 1 to 2 | 4 to 8 | 8 | 2 | 2 | 2 to 4 | 2 to 4 | highly thermostable | no hemolytic activity | 2 to 4
GLRKRLRKFRNKIKEKLKKIGQKDQGLLPKLAPRTDY [Peptide 26] | ≥64 | ≥64 | ≥64 | ≥ 32 | ≥64 | ≥64 | ≥64 | ≥64 | ≥64 |  |  |  |  |  |  | 
